Reference: patent publication US7820667B2, “Methods of treating hypertension” (Daiichi Sankyo Company, Limited, priority 2005, dated 2010)

Assays:
[1] = as reported in Japanese Patent Public Disclosure No. 25323/84; cited from earlier work
rats = experiment: Acute toxicity to rats; format: in vivo
DOCA-salt SHRs [2] = details: in vivo, po, 10 mg/kg/day
Experimental: One kidney was removed from 8-week old SHRs (supplied from Charles River) except for a control group. Then, the animals were divided into the following three experimental groups. • 1) A group given drinking water only (control group); sample size n=8; • 2) A group of DOCA-salt SHRs prepared by giving 30 mg/kg b.w. of deoxycorticosterone acetate (DOCA) subcutaneously once a week and 1% saline as drinking water from one week after nephrectomy (DOCA group); n 4; • 3) A group of DOCA-salt SHRs administered BH4 (10 mg/kg b.w./day) orally (DOCA+BH4 group); n=6.
Urine was collected for 24 hours using a metabolic cage at the start of experiment and after 2, 3, 4, 5 and 6 (at the termination of the observation period) weeks. At the termination of the observation period, blood sample was collected from abdominal aorta under anesthesia with Phenobarbital.
Biopterin (BP), a metabolite of BH4, was measured by a HPLC according to the procedure of Fukushima and Nixon. The effects of BH4 administration are evaluated on the basis of change of BP level in urine.
The measured values were expressed as means±standard error and evaluated statistically using two-way ANOVA test. In the following analyses, the significant level sets p<0.05.

DOCA-salt SHRs [3] = experiment: Blood pressure by tail-cuff method in DOCA-salt SHR; format: in vivo; details: BH4 10 mg/kg b.w./day orally
Experimental: Blood pressure was measured by the tail-cuff method at the start of experiments and after 2, 3, 4, 5 and 6 weeks.

[4] = system: DOCA-salt hypertension rats; experiment: NO2/NO3 in urine (Griess method) in DOCA-salt hypertension rats; format: in vivo, Sprague-Dawley rats; details: BH4 10 mg/kg b.w./day orally
Experimental: One kidney was removed from each of 8-week-old Sprague-Dawley rats (supplied from Charles River) except for a control group. […] The measurement was carried out using Nitrate-Nitrite assay kit, (kit No. 780001, Cyman Chemical Company) according to the Griess method. The values of NO2/NO3 in urine means the activity of NOS, namely, higher the value, higher the activity.

[5] = system: DOCA-salt hypertension rats; experiment: Biopterin (BP) in urine by HPLC in DOCA-salt hypertension rats; format: in vivo, Sprague-Dawley rats; details: BH4 10 mg/kg b.w./day orally
Text: (§1) One kidney was removed from each of 8-week-old Sprague-Dawley rats (supplied from Charles River) except for a control group.

[6] = Body weight of DOCA-salt hypertension rats; format: in vivo, Sprague-Dawley rats; details: for Body weight: DOCA-salt hypertension rats, BH4 10 mg/kg b.w./day orally
Text: as §1

e-NOS mRNA = experiment: Measurement of NOS mRNA expression in renal tissues (RT-PCR, Southern hybridization); format: in vivo, Sprague-Dawley rats; details: renal cortex, DOCA+BH4 group as compared with DOCA group, normalized against MDH, FIG. 4
Experimental: as §1
Extraction of RNA from renal tissues was performed by the guanidium/cesium chloride extraction method.
Namely, a small amount of tissues collected from renal cortex of the isolated kidney was added immediately to a lysis solution 4M guanidinium thiocyanate and homogenized by a glass/Teflon homogenizer. This lysate was overlaid on 5.7M cesium chloride and centrifuged at 80,000 rpm for 2 hours, then the precipitate was dissolved in 0.1% diethyl pyrocarbonate (DEP) solution. This solution was precipitated with 2.5M ammonium acetate and ethanol at −20° C. for one hour and centrifuged at 10,000 rpm at 4° C. for 20 minutes to give a precipitate. […]
Specifically, the RT reaction solution was added to a mixture of 5′- and 3′-primers for each of e-NOS to be detected and for malate dehyadrogenase (MDH) used as an internal standard, PCR buffer, 2.5 mM dNTP mixed solution and Taq DNA polymerase. […]
PCR products were electrophoresed on 5% polyacrylamide gel and NOS mRNA expression was measured by Southern hybridization.
Specifically, the PCR reaction solution was electrophoresed on 5% polyacrylamide and then, the gel was transferred to membrane filters. […] Then, autoradiography was run at −70° C. for several hours and the exposed autoradiograms were analyzed by a densitometer. […]

endothelial NOS (e-NOS) = experiment: Immunostaining of renal tissue NOS (anti-e-NOS antibody); format: in vivo, Sprague-Dawley rats; details: renal tissues, DOCA-salt hypertension rats, BH4 10 mg/kg b.w./day orally, end of observation (5 weeks)
Text: as §1
(§2) The expression of endothelial NOS (e-NOS) and brain NOS (b-NOS) in renal tissues was examined in the sections of the isolated frozen renal tissues by immunostaining with anti-e-NOS and anti-b-NOS antibodies (Affinity Bioreagents), respectively.

[7] = system: DOCA-salt hypertension rats; experiment: Blood pressure by tail-cuff method in DOCA-salt hypertension rats; format: in vivo, Sprague-Dawley rats; details: BH4 10 mg/kg b.w./day orally
Experimental: One kidney was removed from each of 8-week-old Sprague-Dawley rats (supplied from Charles River) except for a control group. […] Blood pressure was measured by the tail-cuff method at the start of experiment and 2, 4 and 5 weeks.

brain NOS (b-NOS) = experiment: Immunostaining of renal tissue NOS (anti-b-NOS antibody); format: in vivo, Sprague-Dawley rats; details: renal tissues, DOCA-salt hypertension rats, BH4 10 mg/kg b.w./day orally, end of observation (5 weeks)
Text: as §1, §2

DOCA-salt SHRs [8] = experiment: Histopathological findings in renal tissues of DOCA-salt SHR; format: in vivo
Text: After collecting urine and measuring blood pressure at 6 weeks, the animals was incised under anesthesia, exsanguinated from abdominal aorta and perfused with physiological saline via this site. The isolated kidney was fixed in a 10% formaldehyde solution, embedded in paraffin, then sliced to 4 μm in thickness by a microtome. Samples were stained with hematoxylin/eosin (HE) and periodic acid-Shiff. The incidences of histopathological findings on necrotizing glomerulitis and necrotizing arteriolitis were compared among the groups.

[9] = until termination of observation period
[10] = BH4 10 mg/kg b.w./day orally, kidney at 6 weeks

Structure (SMILES): C[C@H](O)[C@H](O)C1CNc2nc(N)[nH]c(=O)c2N1 (stereo partly drawn) [(6R,S)-5,6,7,8-tetrahydrobiopterin]
- toxicity [1]: only slightly toxic

Structure (SMILES): C[C@H](O)[C@H](O)[C@H]1CNc2[nH]c(N)nc(=O)c2N1.Cl.Cl [BH4 dihydrochloride]
- acute toxicity (rats): more than 2 g/kg (b.w.)

Structure (SMILES): CC(O)C(O)C1CNc2nc(N)[nH]c(=O)c2N1 [BH4, (6R)-L-erythro-5,6,7,8-tetrahydrobiopterin]
- Change of BP in urine (in words) (DOCA-salt SHRs [2]): showed an increase in the value of BP with time
- Blood pressure (DOCA-salt SHRs [3]; Start): 130.22 mmHg
- Blood pressure (DOCA-salt SHRs [3]; Week 2): 133.60 mmHg
- Blood pressure (DOCA-salt SHRs [3]; Week 3): 143.63 mmHg
- Blood pressure (DOCA-salt SHRs [3]; Week 4): 150.90 mmHg
- Blood pressure (DOCA-salt SHRs [3]; Week 5): 159.30 mmHg
- Blood pressure (DOCA-salt SHRs [3]; Week 6): 162.95 mmHg
- Change of blood pressure (in words) (DOCA-salt SHRs [3]; [9]): showed the same blood pressures level as that of the control group
- Change of NO2/NO3 in urine (in words) [4]: showed an increase in the value
- NO2/NO3 in urine ([4]; Start): 2.22 ± 0.7 µmol/day
- NO2/NO3 in urine ([4]; Week 4): 2 ± 0.55 µmol/day
- NO2/NO3 in urine ([4]; Week 5): 5.95 ± 1.9 µmol/day
- Change of BP in urine (in words) [5]: showed an increase in the value of BP with time
- Body weight ([6]; Start): 383.40 g
- Body weight ([6]; Week 2): 386.40 ± 12.84 g
- Body weight ([6]; Week 4): 431.20 ± 13.31 g
- Body weight ([6]; Week 5): 446.80 ± 15.81 g
- Body weight (in words) ([6]; control, DOCA and DOCA+BH4 groups compared): no significant difference
- expression of e-NOS mRNA (e-NOS mRNA): significantly enhanced
- expression of e-NOS in small vessels (immunostaining) (endothelial NOS (e-NOS)): comparable to the control group or slightly enhanced
- Blood pressure ([7]; Start): 105.72 mmHg
- Blood pressure ([7]; Week 2): 120.54 mmHg
- Blood pressure ([7]; Week 4): 111.91 mmHg
- Blood pressure ([7]; Week 5): 107.78 mmHg
- Change of blood pressure (in words) [7, 9]: stayed at normal blood pressures
- expression of b-NOS in macula densa (immunostaining) (brain NOS (b-NOS)): comparable to the control group or slightly enhanced
- Percentage (%) of incidences of histopathological findings in renal tissues: Necrotizing angiitis (DOCA-salt SHRs [8]; [10]): 3.34 ± 0.94%
- Percentage (%) of incidences of histopathological findings in renal tissues: Necrotizing glomerulitis (DOCA-salt SHRs [8]; [10]): 2.47 ± 1.07%
- Histopathological findings (in words) (DOCA-salt SHRs [8]; oral administration of BH4): remarkably improved histopathological findings
